These results are taken from patent US9133179B2, “2-methoxy-pyridin-4-yl-derivatives” (Actelion Pharmaceuticals Ltd., priority 2011, dated 2015).

One data set concerns circulating lymphocytes. Put plainly: Assessment of in vivo efficacy: circulating lymphocytes after oral administration to Wistar rats. The following applies: Rattus norvegicus, Lymphocyte; 6 h after oral administration of 10 mg/kg, normotensive male Wistar rats, compared to vehicle group; read-out: Lymphocyte counts. On the set-up: species or system rat. The method, then: Assessment of In Vivo Efficacy
The efficacy of the compounds of Formula (I) is assessed by measuring the circulating lymphocytes after oral administration of 3 to 30 mg/kg of a compound of Formula (I) to normotensive male Wistar rats. The animals are housed in climate-controlled conditions with a 12 h-light/dark cycle, and have free access to normal rat chow and drinking water. […] Full blood is subjected to hematology using Advia Hematology system (Bayer Diagnostics, Zurich, Switzerland).
All data are presented as mean±SEM. Statistical analyses are performed by analysis of variance (ANOVA) using Statistica (StatSoft) and the Student-Newman-Keuls procedure for multiple comparisons. The null hypothesis is rejected when p<0.05.

A further data set deals with rat trachea rings. Put plainly: Measurement of isometric force development: constriction of rat trachea rings. The following applies: for % trachea constriction at 0.3 μM / % trachea constriction at 10 nM / % trachea constriction at 30 nM / % trachea constriction at 3 μM / % trachea constriction at 10 μM / % trachea constriction at 30 μM: in % of the constriction induced by 50 mM KCl; for activation at 0.1 µM / activation at 1 µM: Rattus norvegicus; for activation at 0.1 µM: read-out: % trachea constriction at 0.1 μM; for activation at 1 µM: read-out: % trachea constriction at 1 μM.

The target in data set [1] is T1, human S1P1 (EDG1) receptor (Homo sapiens, UniProt P21453).
T1 construct: host or cells: U2OS (Tango EDG1-bla U2OS)
T1 sequence (P21453 whole entry): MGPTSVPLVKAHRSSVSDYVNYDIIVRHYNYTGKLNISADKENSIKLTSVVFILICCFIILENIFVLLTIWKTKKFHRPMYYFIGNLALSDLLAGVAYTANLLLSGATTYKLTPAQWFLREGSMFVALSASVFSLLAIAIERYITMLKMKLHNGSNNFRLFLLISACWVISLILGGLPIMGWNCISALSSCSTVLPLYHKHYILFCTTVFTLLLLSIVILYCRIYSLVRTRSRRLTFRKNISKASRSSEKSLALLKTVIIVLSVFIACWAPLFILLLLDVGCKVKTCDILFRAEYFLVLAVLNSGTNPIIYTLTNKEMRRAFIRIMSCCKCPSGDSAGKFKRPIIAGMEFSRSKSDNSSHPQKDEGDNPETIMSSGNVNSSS
Put plainly: S1P1 β-arrestin recruitment (Tango) assay to determine EC50 values. It counts as cell-based. The following applies: Tango-EDG1 bla U2OS cells, 16 h incubation. The text has this:
S1P1 β-Arrestin Recruitment (Tango) Assay to Determine EC50 Values
Upon ligand activation, G protein-coupled receptors (GPCR) trigger two pathways that independently transduce signals to the cell: one through heterotrimeric GTP-binding proteins (G proteins) and one through β-arrestins. Agonist-induced GPCRs recruit β-arrestin proteins, which then bind to the carboxy-terminal domain of ligand-activated GPCRs. The amount of β-arrestin recruitment can be used to assess the potency and efficacy of GPCR activating ligands.
To measure the potency and efficacy of compounds as S1P1 (EDG1) receptor agonists, Tango™-EDG1 bla U2OS cells (Invitrogen, USA, Catalog #K1520) are used. The Tango™ GPCR technology is based on GeneBLAzer β-lactamase reporter cell assays, which uses a mammalian-optimized β-lactamase reporter gene (bla) combined with a FRET-enabled substrate. The host cells, U2OS, stably express a human S1P1 (EDG1) receptor/transcription factor (TF) fusion protein. The cells also express a recombinant protease tagged β-arrestin protein, which is recruited to the S1P1 receptor upon ligand stimulation and specifically cleaves the S1P1-TF fusion protein. The released TF activates the β-lactamase (bla) reporter gene. To measure the reporter gene activity, cells are loaded with a fluorescent substrate containing two chemically coupled fluorophores, coumarin and fluorescein. […] In the presence of bla, the chemical bond is cleaved and FRET is inhibited. […] The amount of β-arrestin recruitment is proportional to the increase in blue fluorescence.
Tango™-EDG1 bla U2OS cells are cultivated in McCoy's 5A containing 10% dialyzed FBS, 0.1 mM NEAA, 25 mM HEPES, 1 mM sodium pyruvate, 1% Penicillin/Streptomycin, 200 μg/ml zeocin, 50 μg/ml hygromycin and 100 μg/ml geneticin (Invitrogen, USA). Cells are detached with trypsin, resuspended in medium and then counted.
Compounds (10 mM stock in DMSO) are diluted first in DMSO. The pre-diluted compounds solutions are then transferred into Assay Medium/0.1% fatty acid free BSA to reach a fourfold concentrated compound stock, which is applied to the cells to reach the final compound concentrations that range from 10 μM to 0.0005 nM (0.5% final DMSO). Cells are then incubated for 16 h at 37° C. and 5% CO2.

Protocol for rat trachea rings: Measurement of Isometric Force Development
Female Wistar rats are euthanized by exposure to CO2. The tracheae are excised and rings from the lower segments are prepared. […] A resting force of 2 g (20 mN) is applied to the ring preparation, and changes in force generation are measured using an isometric force recorder (EMKA Technologies Inc., Paris, France). Viability of rings is assessed by exposure to a depolarizing concentration of KCl (50 mM). Contraction of trachea is expressed as a percentage of the response to KCl.
The compounds are prepared as stock solutions of 0.3 mM in pure DMSO.

Regarding `CCc1cc(-c2noc(-c3cc(OC)nc(C4CCCC4)c3)n2)cc(C)c1OCCNCCC(=O)O` [Example 1, 3-((2-(4-(5-(2-Cyclopentyl-6-methoxypyridin-4-yl)-1,2,4-oxadiazol-3-yl)-2-ethyl-6-methylphenoxy)ethyl)amino)propanoic acid], in the data set with circulating lymphocytes, the change in vivo at 10 mg/kg was -69%. Also, in the data set on rat trachea rings, the “% trachea constriction at 0.3 μM” value turned out to be 53%, the activation at 0.1 µM is less than 5% and the activation at 1 µM came out at 96%. The same compound yielded an EC50 in data set [1] of 40 pM.

For the compound `CCc1cc(-c2noc(-c3cc(OC)nc(C4CCCC4)c3)n2)cc(C)c1OCCN1CC(C(=O)O)C1` [Example 2, 1-(2-(4-(5-(2-Cyclopentyl-6-methoxypyridin-4-yl)-1,2,4-oxadiazol-3-yl)-2-ethyl-6-methylphenoxy)ethyl)azetidine-3-carboxylic acid], in the data set on circulating lymphocytes, the change in vivo at 10 mg/kg is -70%. Also, in the data set with rat trachea rings, the “% trachea constriction at 10 nM” value is less than 5%, the “% trachea constriction at 30 nM” value is recorded as less than 5%, the “% trachea constriction at 0.3 μM” value is on record as 55% and the activation at 0.1 µM was less than 5%. Moreover, the activation at 1 µM in the data set with rat trachea rings worked out at 93%. In addition, the 50% effective concentration (EC50) in data set [1] is 400 pM.

With `CCc1cc(-c2noc(-c3cc(OC)nc(C4CCCC4)c3)n2)cc(C)c1OC[C@@H](O)CNCCO` [Example 3], the change in vivo at 10 mg/kg with circulating lymphocytes was -25%. Further, in the data set with rat trachea rings, the “% trachea constriction at 3 μM” value is given as less than 5%, the “% trachea constriction at 10 μM” value is recorded as less than 5%, the “% trachea constriction at 30 μM” value is given as less than 5% and the activation at 1 µM is less than 5%. The same compound registered an EC50 in data set [1] of 8300 pM.

As for `CCc1cc(-c2noc(-c3cc(OC)nc(C4CCCC4)c3)n2)cc(C)c1OC[C@@H](O)CNC(CO)CO` [Example 4], in the data set with circulating lymphocytes, the change in vivo at 10 mg/kg was -65%. Further, in the data set with rat trachea rings, the “% trachea constriction at 3 μM” value is listed as less than 5%, the “% trachea constriction at 10 μM” value is less than 5%, the “% trachea constriction at 30 μM” value is less than 5% and the activation at 1 µM was less than 5%. The compound also registered an EC50 in data set [1] of 6600 pM.

In the case of `CCc1cc(-c2noc(-c3cc(OC)nc(C4CCCC4)c3)n2)cc(C)c1OCC(=O)O` [Example 5, 2-(4-(5-(2-Cyclopentyl-6-methoxypyridin-4-yl)-1,2,4-oxadiazol-3-yl)-2-ethyl-6-methylphenoxy)acetic acid], the change in vivo at 10 mg/kg in the data set on circulating lymphocytes is -35%. In the data set with rat trachea rings, the “% trachea constriction at 10 nM” value is on record as less than 5%, the “% trachea constriction at 30 nM” value was less than 5%, the “% trachea constriction at 0.3 μM” value is 84% and the activation at 0.1 µM came to 66%. Moreover, in the data set on rat trachea rings, the activation at 1 µM worked out at 124%. In data set [1], this compound displayed a half-maximal effective concentration (EC50) of 1600 pM.

Consider `CCc1cc(-c2noc(-c3cc(OC)nc(C4CCCC4)c3)n2)cc(C)c1OCCCC(=O)O` [Example 6, 4-(4-(5-(2-Cyclopentyl-6-methoxypyridin-4-yl)-1,2,4-oxadiazol-3-yl)-2-ethyl-6-methylphenoxy)butanoic acid], for which the change in vivo at 10 mg/kg with circulating lymphocytes was -53%. In addition, in the data set on rat trachea rings, the “% trachea constriction at 10 nM” value is less than 5%, the “% trachea constriction at 30 nM” value is on record as less than 5%, the “% trachea constriction at 0.3 μM” value is on record as 91% and the activation at 0.1 µM was less than 5%. Besides, the activation at 1 µM in the data set with rat trachea rings was 110%. Moreover, the “concentration at which significant (or KCl-comparable) rat trachea constriction is shown” value in the data set on rat trachea rings (rat trachea rings) worked out at 300 nM. In addition, a half-maximal response in data set [1] (EC50) required 200 pM.

For the compound `CCc1cc(-c2noc(-c3cc(OC)nc(C4CCCC4)c3)n2)cc(C)c1OCCNCC(=O)O` [Example 7, 2-((2-(4-(5-(2-Cyclopentyl-6-methoxypyridin-4-yl)-1,2,4-oxadiazol-3-yl)-2-ethyl-6-methylphenoxy)ethyl)amino)acetic acid], the change in vivo at 10 mg/kg with circulating lymphocytes was -70%. Further, in the data set on rat trachea rings, the “% trachea constriction at 10 nM” value is less than 5%, the “% trachea constriction at 0.3 μM” value is reported as less than 5%, the activation at 0.1 µM is less than 5% and the activation at 1 µM came to 68%. Moreover, the “concentration at which significant (or full) rat trachea constriction is shown” value with rat trachea rings (rat trachea rings) turned out to be 1000 nM. Further, in data set [1], a half-maximal effect (EC50) was put at 1500 pM.

As to `CCc1cc(-c2noc(-c3cc(OC)nc(C4CCCC4)c3)n2)cc(C)c1OCC(=O)NCCO` [Example 13, 2-(4-(5-(2-Cyclopentyl-6-methoxypyridin-4-yl)-1,2,4-oxadiazol-3-yl)-2-ethyl-6-methylphenoxy)-N-(2-hydroxyethyl)acetamide], the change in vivo at 10 mg/kg with circulating lymphocytes is -77%. In addition, in the data set with rat trachea rings, the “% trachea constriction at 10 μM” value is less than 5% and the activation at 1 µM is less than 5%. Further, the concentration giving a half-maximal response (EC50) in data set [1] was 2400 pM.

On to `CCc1cc(-c2noc(-c3cc(OC)nc(C4CCCC4)c3)n2)cc(C)c1OCCCNC(=O)CCC(=O)O` [Example 32, 4-((3-(4-(5-(2-Cyclopentyl-6-methoxypyridin-4-yl)-1,2,4-oxadiazol-3-yl)-2-ethyl-6-methylphenoxy)propyl)amino)-4-oxobutanoic acid], for which, in the data set with circulating lymphocytes, the change in vivo at 10 mg/kg was -65%. Besides, in the data set with rat trachea rings, the “% trachea constriction at 0.3 μM” value was 50%, the activation at 0.1 µM is 27% and the activation at 1 µM is 105%. Moreover, the EC50 in data set [1] turned out to be 72 pM.

`CCc1cc(-c2nc(-c3cc(OC)nc(C4CCCC4)c3)no2)cc(C)c1OCCNCC(=O)O` [Example 55, 2-((2-(4-(3-(2-Cyclopentyl-6-methoxypyridin-4-yl)-1,2,4-oxadiazol-5-yl)-2-ethyl-6-methylphenoxy)ethyl)amino)acetic acid]: the change in vivo at 10 mg/kg in the data set on circulating lymphocytes is -72%. In addition, the EC50 in data set [1] was 100 pM.

For `CCc1cc(-c2nc(-c3cc(OC)nc(C4CCCC4)c3)no2)cc(C)c1OCCNCCC(=O)O` [Example 57, 3-((2-(4-(3-(2-Cyclopentyl-6-methoxypyridin-4-yl)-1,2,4-oxadiazol-5-yl)-2-ethyl-6-methylphenoxy)ethyl)amino)propanoic acid], in the data set with circulating lymphocytes, the change in vivo at 10 mg/kg was -74%. This compound had an EC50 in data set [1] of 50 pM.

Turning to `CCc1cc(-c2nc(-c3cc(OC)nc(C4CCCC4)c3)no2)cc(C)c1OCCCNCC(=O)O` [Example 59, 2-((3-(4-(3-(2-Cyclopentyl-6-methoxypyridin-4-yl)-1,2,4-oxadiazol-5-yl)-2-ethyl-6-methylphenoxy)propyl)amino)acetic acid], the change in vivo at 10 mg/kg with circulating lymphocytes is -82%. Further, the midpoint of the response in data set [1], the EC50, lay at 2700 pM.

With `CCc1cc(-c2nnc(-c3cc(OC)nc(C4CCCC4)c3)o2)cc(C)c1OCC(=O)O` [Example 60, 2-(4-(5-(2-Cyclopentyl-6-methoxypyridin-4-yl)-1,3,4-oxadiazol-2-yl)-2-ethyl-6-methylphenoxy)acetic acid], in the data set on circulating lymphocytes, the change in vivo at 10 mg/kg was -35%. Moreover, in data set [1], the concentration for a half-maximal effect (EC50) was 7200 pM.

Regarding `CCc1cc(-c2nnc(-c3cc(OC)nc(C4CCCC4)c3)o2)cc(C)c1OCCCC(=O)O` [Example 61, 4-(4-(5-(2-Cyclopentyl-6-methoxypyridin-4-yl)-1,3,4-oxadiazol-2-yl)-2-ethyl-6-methylphenoxy)butanoic acid], the change in vivo at 10 mg/kg in the data set on circulating lymphocytes is -27%. Besides, the half-maximal effective concentration (EC50) in data set [1] amounted to 100 pM.

Consider `CCc1cc(-c2nnc(-c3cc(OC)nc(C4CCCC4)c3)o2)cc(C)c1OCCNCCC(=O)O` [Example 62, 3-((2-(4-(5-(2-Cyclopentyl-6-methoxypyridin-4-yl)-1,3,4-oxadiazol-2-yl)-2-ethyl-6-methylphenoxy)ethyl)amino)propanoic acid], for which the change in vivo at 10 mg/kg in the data set on circulating lymphocytes was -63%. In data set [1], a half-maximal response (EC50) required 200 pM.

Consider `CCc1cc(-c2nnc(-c3cc(OC)nc(C4CCCC4)c3)o2)cc(C)c1OCCN1CC(C(=O)O)C1` [Example 63, 1-(2-(4-(5-(2-Cyclopentyl-6-methoxypyridin-4-yl)-1,3,4-oxadiazol-2-yl)-2-ethyl-6-methylphenoxy)ethyl)azetidine-3-carboxylic acid], for which, in the data set with circulating lymphocytes, the change in vivo at 10 mg/kg is -71%. Further, the concentration giving a half-maximal response (EC50) in data set [1] is 1100 pM.
